{"source": "patent US20260076893A1", "about": "“SELF-FOAMING CLEANSING COMPOSITION” (Conopco, Inc., d/b/a UNILEVER, priority 2022, published 2026)", "key": {"[1]": {"assay": "DPPH scavenging method (antioxidation)", "assay_type": "biochemical", "conditions": "0.25%, positive control, dilution not given", "excerpt": "To add antioxidation properties to the self-foaming cleansing composition, tocopherol (Vitamin E) can be added. Antioxidation can be measured using a DPPH scavenging method where DPPH (1,1-Diphenyl-2-picrylhydrazyl) is a stable free radical. On accepting hydrogen from a corresponding donor, its solutions lose a characteristic deep purple color and antiradical activity of tested formulations can be expressed as a percentage decrease of DPPH concentration. […] Accordingly, in a further aspect, the invention relates to the use of tocopherol in a composition according to the invention to provide anti-oxidant activity to the cleansing composition, preferably dose-dependent anti-oxidant activity. The invention relates further to the use of tocopherol to reduce free radicals in a cleansing composition according to the invention, preferably dose-dependent anti-oxidant activity. In a further embodiment, it may be preferred that the cleansing composition of the invention comprises tocopherol and moringa seed oil.\nThe antioxidant activity of the formulations in Samples 4 and 5 were tested using the DPPH scavenging method (1,1-Diphenyl-2-picrylhydrazyl). DPPH is a stable free radical. […] The antiradical activity of Samples 4 and 5 was expressed as a percentage decrease of DPPH concentration."}, "[2]": {"tested_on": "AQP3", "assay": "Living skin equivalent assay, AQP3 gene expression", "assay_type": "cell-based", "protocol": "(§1) In the following samples, compositions were made with varying levels of moringa seed oil and tested in a living skin equivalent assay. The base composition was tested with levels of 0.1% by weight, 0.2% by weight, and 0.3% by weight of moringa seed oil, based on the total weight of the self-foaming cleansing composition. The living skin equivalent assay study monitored gene expression of several markers after application of the test solutions to the living skin equivalent assay.\n(§2) Comparative Example 1 was a non-treated control meaning no application on the skin model. Comparative Example 2 was another control where phosphate-buffered saline (PBS) was applied topically to the skin model."}, "[3]": {"tested_on": "IL-1a", "assay": "Living skin equivalent assay, IL-1a", "assay_type": "cell-based", "conditions": "living skin equivalent after application of test solution", "protocol": "as §1, §2"}, "[4]": {"tested_on": "CASP14", "assay": "Living skin equivalent assay, CASP14 gene expression", "assay_type": "cell-based", "protocol": "as §1, §2"}}}
{"compound": "O=C1O[C@H]([C@@H](O)CO)C(O)=C1O", "note": "[Vitamin C]", "values": [{"measurement": "% Reduction over DPPH reagent control", "setting": "[1]", "result": 95.04, "unit": "%"}]}
{"compound": "squalene monoperoxide [SQOOH]", "values": [{"measurement": "AQP3 (Fold change)", "setting": "[2]", "result": "0.27 ± 0.04", "unit": "Fold change"}, {"measurement": "IL-1a", "setting": "[3]", "result": "483.84 ± 11.42", "unit": "pg/mL"}, {"measurement": "CASP14 (Fold change)", "setting": "[4]", "result": "0.54 ± 0.31", "unit": "Fold change"}]}
